The assay concerns 4T1 tumor. The experiment in a line: 4T1 tumor model: ENPP1 inhibition with IR, cGAMP and anti-CTLA-4. The class given is in vivo, mouse. As to conditions: 20 Gy IR then intratumoral 10 μg cGAMP on day 2, 4, 7.

Turning to `Nc1nc2c(ncn2[C@@H]2O[C@@H]3COP(=O)(O)O[C@H]4[C@@H](O)[C@H](n5cnc6c(N)ncnc65)O[C@@H]4COP(=O)(O)O[C@@H]2[C@@H]3O)c(=O)[nH]1` [cGAMP, cyclic guanosine monophosphate-adenosine monophosphate], the “effect over IR treatment” value is given as “had no effect over IR treatment”.

The values above are taken from US11707471B2, “ENPP1 inhibitors and their use for the treatment of cancer” (The Board of Trustees of the Leland Stanford Junior …, priority 2017, dated 2023).
